“And” between values parts separate entries of the source, which are not always exact repeats. Identical values can stand only once.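 Step 1: Grow cells in 96-well plates. Step 2: Expose to compound for 48 hours at 5 concentrations. Step 3: Interpolate endpoints linearly; if unreached, use highest concentration. At the GI50, growth is halved. TGI: total growth inhibition.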
Columns and labels:
Test in all cases: NCI anticancer screen, dose series, 48 h
A498 renal = system: A498 renal
ACHN renal = system: ACHN renal
BT-549 breast = system: BT-549 breast
CCRF-CEM leukemia = system: CCRF-CEM leukemia
MOLT-4 leukemia = system: MOLT-4 leukemia
NCI/ADR-RES ovarian = system: NCI/ADR-RES ovarian
SF-539 CNS = system: SF-539 CNS
SK-MEL-28 melanoma = system: SK-MEL-28 melanoma
SW-620 colon = system: SW-620 colon
UACC-62 melanoma = system: UACC-62 melanoma

| SMILES | TGI (A498 renal) | TGI (ACHN renal) [µM] | TGI (BT-549 breast) [µM] | TGI (CCRF-CEM leukemia) [µM] | TGI (MOLT-4 leukemia) | TGI (NCI/ADR-RES ovarian) [µM] | TGI (SF-539 CNS) [µM] | TGI (SK-MEL-28 melanoma) [µM] | TGI (SW-620 colon) [µM] | TGI (UACC-62 melanoma) [µM] | GI50 (A498 renal) | GI50 (CCRF-CEM leukemia) |
| --- | --- | --- | --- | --- | --- | --- | --- | --- | --- | --- | --- | --- |
| C=C1CC(COc2ccc3c(C)c(C)c(=O)oc3c2C)(c2ccccc2)OC1=O (configuration not stated) | 12.5 µM | 7.51 | 3.17 | 1.55 | 3.05 µM | 8.24 | 4.75 | 5.44 | 3.5 | 3.42 | – | – |
| CC1(C)N=C(N)N=C(N)N1c1cccc(OCc2cccc(N)c2)c1 | > 100 µM | > 100 | > 100 | > 100 | > 100 µM | > 100 | > 80.4 | > 100 | > 100 | > 100 | – | – |
| O=C1N/N=C\c2ccc(cc2)OCc2cccc(n2)COc2ccc(cc2)/C=N\NC1=O | > 25 µM | > 25 | > 25 | > 25 | > 25 µM | > 25 | > 25 | > 25 | > 25 | > 25 | – | – |
| C#CCOCC12C=CC(O1)C1COC(=O)C12 (configuration not stated) | > 100 µM | > 100 | > 100 | > 100 | > 100 µM | > 100 | > 100 | > 100 | > 100 | > 100 | – | – |
| COC(=O)C1=C(C)NC(C)=C(C(=O)OC)C1c1cccc(N=O)c1 | 98.2 µM | 27.6 | 31 | > 100 | > 100 µM | 51 | 33.5 | 30.4 | 17.7 | 27.6 | – | – |
| CNC(=S)NNc1ncnc2c1c(-c1ccc(Cl)cc1)cn2-c1ccc(C)cc1 | 49.6 µM | 22.8 | 29.2 | > 100 | > 100 µM | 34.4 | 29.8 | 25.2 | 21.7 | 40.7 | – | – |
| O=CN1CCN(C(=O)c2ccco2)C1=S | 39.7 µM | 24 | 16.8 | > 37.1 | 35 µM | 75.3 | 22.8 | > 57.6 | > 46.5 | 20.7 | – | – |
| COc1ccc2c(c1)-c1c(c3cc(OC)ccc3n1CCN(C)C)CC2 | 24.1 µM | 28.4 | 26.9 | 26.4 | 33.8 µM | 32 | 29.8 | 30.4 | 31.1 | 22.8 | – | – |
| Cc1nnc2n1-c1ccccc1N(Cc1ccccc1)CC2 | > 100 µM | > 100 | 76.2 | 90.3 | 89.5 µM | 69.2 | > 100 | > 100 | > 100 | > 100 | – | – |
| Cc1cc(S(=O)(=O)Nc2n[nH]c(Nc3ccccc3)n2)c(SCC(=O)O)cc1Cl | > 100 µM | > 100 | > 100 | > 100 | > 100 µM | > 100 | > 100 | > 100 | > 100 | > 100 | – | – |
| S=c1[nH]nc(Cn2c3ccc(Br)cc3c3nc4ccccc4nc32)n1C1CCCCC1 | 58.1 µM | 98.9 | > 83 | 84.1 | 28.6 µM | > 92 | 42.1 | > 56.8 | > 100 | 41.1 | – | – |
| CCCCN1C(=O)CC2[C@@H]3CCc4cc(OC)ccc4C3CC[C@]2(C)C1=O (some centres not stated) | > 10 µM | > 10 | > 10 | > 10 | > 10 µM | > 10 | > 10 | > 10 | > 10 | > 10 | – | – |
| COc1cc2c3cc1Oc1c(OC)c(OC)cc4c1C(Cc1ccc(O)c(c1)Oc1ccc(cc1)CC3N(C)CC2)CN(C)C4 (configuration not stated) | 31.2 µM | > 100 | 30.2 | 15.6 | 54.5 µM | 41.7 | 26.9 | 31.9 | 30 | 32.1 | – | – |
| O=C1/C(=C/c2ccncc2)C(n2cccc2)c2c(Br)sc(Br)c21 (configuration not stated) | 39 µM | 17.1 | 16.8 | 4.99 | 4.64 µM | 51.2 | 17.1 | 8.73 | 3.55 | 7.5 | – | – |
| Cn1nc2c(c1N)Cc1c(nn(C)c1N)-c1ccccc1-2 | > 100 µM | > 100 | > 100 | > 100 | > 100 µM | > 100 | > 100 | > 100 | > 100 | > 100 | – | – |
| COc1ccc(C2Oc3c(OC)cc(CCCO)cc3C2CO)cc1OC (configuration not stated) | 88 µM and > 100 µM | > 100 | > 100 | > 100 | 96.7 µM and > 100 µM | > 100 | > 100 | > 100 | > 100 | > 100 | 26.1 µM and 73.4 µM | 37.9 µM and > 100 µM |
| CCOc1ccc(NCC2CC/C(=C\C=C\c3ccccc3)C2=O)cc1 (configuration not stated) | > 100 µM | > 92.2 | 33 | > 100 | > 42.9 µM | > 75.3 | 37.8 | 35.5 | 21.3 | 54.2 | – | – |

| SMILES | TGI (A498 renal) | TGI (ACHN renal) [µM] | TGI (BT-549 breast) [µM] | TGI (CCRF-CEM leukemia) [µM] | TGI (MOLT-4 leukemia) | TGI (NCI/ADR-RES ovarian) [µM] | TGI (SF-539 CNS) [µM] | TGI (SK-MEL-28 melanoma) [µM] | TGI (SW-620 colon) [µM] | TGI (UACC-62 melanoma) [µM] | GI50 (A498 renal) | GI50 (CCRF-CEM leukemia) |
| --- | --- | --- | --- | --- | --- | --- | --- | --- | --- | --- | --- | --- |
| CC(=O)OCC(=O)O[C@@H]1[C@H]2[C@@H](OC(=O)c3ccccc3)[C@@H](C)C[C@]2(O)[C@H](OC(C)=O)[C@@]2(C)C[C@]1(OC(C)=O)C[C@H]1C(=O)C(C)(C)[C@@H](OC(C)=O)[C@@H]12 | > 23.8 µM | > 25 | > 25 | > 25 | > 25 µM | > 25 | > 25 | > 25 | > 25 | > 25 | – | – |
| O=C(Sc1c(-c2ccccc2)c(=O)n(-c2ccccc2)c(=S)n1-c1ccccc1)c1ccco1 | > 100 µM | > 100 | > 100 | 69.3 | > 100 µM | > 100 | > 100 | > 100 | > 100 | > 100 | – | – |
| O=C1c2cccnc2S(=O)(=O)N1c1ccc([N+](=O)[O-])cc1 | > 100 µM | > 100 | > 100 | > 100 | > 100 µM | > 100 | > 100 | > 100 | > 100 | > 100 | – | – |
| C[N+]1(CCN=C=NC2CCCCC2)CCOCC1 | > 100 µM | > 100 | > 100 | > 100 | > 100 µM | > 100 | > 100 | > 100 | > 100 | > 100 | – | – |
| CCCCCCCCCCCCNC(=O)CCC(NC(=O)c1ccc(N(C)Cc2cnc3nc(N)nc(N)c3n2)cc1)C(=O)NCCCCCCCCCCCC (configuration not stated) | > 100 µM | > 100 | > 100 | 66.7 | > 100 µM | > 100 | > 100 | > 100 | > 100 | > 100 | – | – |
| O=C(OC12CC3CC(CC(C3)C1)C2)c1ccc(NCc2cc(O)ccc2O)cc1 | 4.98 µM | 2.35 | 1.71 | 0.723 | 0.451 µM | 2.76 | 1.31 | 1.62 | 4.92 | 3.28 | – | – |
| Cc1cc(OCc2nnc3sc(NC(=O)c4ccccc4)nn23)ccc1Cl | > 100 µM | 42.9 | > 100 | > 100 | > 100 µM | > 100 | > 100 | > 100 | > 100 | > 100 | – | – |
| CCC(=O)Nc1ccc(NS(=O)(=O)c2ccc(Cl)cc2)cc1 | > 100 µM | > 100 | > 100 | > 100 | > 100 µM | > 100 | > 100 | > 100 | > 100 | > 100 | – | – |
| Cc1ccc2c(c1C)CC1(Cc3c(C)ccc(C)c3C1=O)C2=O (configuration not stated) | > 100 µM | > 100 | > 100 | > 100 | > 100 µM | > 100 | > 100 | > 100 | > 100 | > 100 | – | – |
| N#Cc1nc(C2CCC(=O)O2)oc1N (configuration not stated) | > 100 µM | > 100 | > 100 | > 100 | > 100 µM | > 100 | > 100 | > 100 | > 100 | > 100 | – | – |
| CN(C)CCNc1c([N+](=O)[O-])sc2ccc(Cl)cc12 | > 100 µM | > 100 | > 100 | > 100 | 7.73 µM | > 100 | 46.9 | > 100 | > 100 | 62.7 | – | – |
| O=c1c(-c2ccccc2)c(SCCN2CCCCCC2)n(-c2ccccc2)c(=S)n1-c1ccccc1 | 56.7 µM | > 100 | > 100 | 29.4 | 57.5 µM | > 100 | > 100 | > 100 | > 100 | > 100 | – | – |
| CC1(C)OC[C@@H](C[C@H](O)COCc2ccccc2)O1 | > 100 µM | > 100 | > 100 | > 100 | > 100 µM | > 100 | > 100 | > 100 | > 100 | > 100 | – | – |
| O=C1CS/C(=N/N=C/c2cn(Cc3ccc(Cl)cc3Cl)c3ccccc23)N1 | 46.5 µM | > 100 | > 100 | 56.4 | > 100 µM | > 100 | 41 | > 100 | > 100 | > 100 | – | – |
| COc1ccc(OC/C(N=Cc2ccncc2)=N/NC(=O)c2ccncc2)cc1 | > 100 µM | > 100 | > 100 | > 100 | > 100 µM | > 100 | > 100 | > 100 | > 100 | > 100 | – | – |
| COc1cc2c3c(cc(Cl)nc3c1OC)C(=O)C(=O)N2 | 30.2 µM | 27.9 | 29.8 | 8.21 | > 31.2 µM | 53.1 | 36.4 | 33.7 | > 55.5 | 18.1 | – | – |
| C=C(C)[C@H]1CC(=O)/C(C)=C\CC/C(C)=C/CC[C@@]2(C)O[C@@H]2C1 | > 100 µM | 87.3 | > 100 | > 100 | > 100 µM | 56 | 42.2 | 64.6 | > 100 | 26.2 | – | – |

From PubChem BioAssay (NCI)
